According to ChEMBL document CHEMBL6134868, “Novel Aryl Sulfonium Modification on Vancomycin to Tackle MRSA and VRE In Vitro and In Vivo through Dual Enhanced Cell-Wall and Membrane Inhibition” (J Med Chem, 2025):
≈ marks a conversion by molar mass, not a printed value. Calls of active or inactive are those of the source. No cut-off for these calls is given here.

Legend:
Enterococcus faecium [1] = assay: Antibacterial activity against vancomycin-resistant Enterococcus faecium Efm-HS-vb01 harboring VanB phenotype incubated for 16 to 24 hrs by broth microdilution assay; assay type: functional; settings: time 16-24 hrs
Klebsiella pneumoniae = assay: Antibacterial activity against Klebsiella pneumoniae KP-1 incubated for 16 to 24 hrs by broth microdilution assay; assay type: functional; settings: time 16-24 hrs
Escherichia coli = assay: Antibacterial activity against Escherichia coli AB1157 incubated for 16 to 24 hrs by broth microdilution assay; assay type: functional; settings: time 16-24 hrs
Enterococcus faecium [2] = assay: Antibacterial activity against vancomycin-resistant Enterococcus faecium SC-2022-D2-059 harboring VanA phenotype incubated for 16 to 24 hrs by broth microdilution assay; assay type: functional; settings: time 16-24 hrs
Enterococcus faecium [3] = assay: Antibacterial activity against vancomycin-resistant Enterococcus faecium Efm-HS-0649 harboring VanA phenotype incubated for 16 to 24 hrs by broth microdilution assay; assay type: functional; settings: time 16-24 hrs
Enterococcus faecium [4] = assay: Antibacterial activity against vancomycin-resistant Enterococcus faecium Efm-HS-08257 harboring VanM phenotype incubated for 16 to 24 hrs by broth microdilution assay; assay type: functional; settings: time 16-24 hrs
Enterococcus faecium [5] = assay: Antibacterial activity against vancomycin-resistant Enterococcus faecium SC-2022-D2-059 harboring VanA phenotype infected in ICR mouse assessed as animal survival rate at 20 mg/kg, iv measured for 7 days relative to control; assay type: functional; settings: SC-2022-D2-059, 168 h, time 7 day
Pseudomonas aeruginosa = assay: Antibacterial activity against Pseudomonas aeruginosa PAO1 incubated for 16 to 24 hrs by broth microdilution assay; assay type: functional; settings: time 16-24 hrs
[6] = Protein binding in plasma (unknown origin); assay type: ADME, cell-free; settings: read-out: PPB (converted)
Enterococcus faecium [7] = assay: Antibacterial activity against vancomycin-resistant Enterococcus faecium Efm-HS-vb02 harboring VanB phenotype incubated for 16 to 24 hrs by broth microdilution assay; assay type: functional; settings: time 16-24 hrs
Acinetobacter baumannii [8] = assay: Antibacterial activity against carbapenem-resistant Acinetobacter baumannii CRAB-1 clinical isolate incubated for 16 to 24 hrs by broth microdilution assay; assay type: functional; settings: time 16-24 hrs
Staphylococcus aureus [9] = assay: Antibacterial activity against methicillin-resistant Staphylococcus aureus USA300 LAC infected in female BALB/c mouse assessed as animal survival rate at 7 mg/kg, iv measured for 7 days consecutively relative to control; assay type: functional; settings: time 7.0 day
[10] = Hemolytic activity against rat erythrocytes at 100 ug/ml incubated for 1 hr by absorbance based assay; assay type: toxicity, cell-based, Erythrocyte; settings: erythrocytes, at 100 µg/mL, read-out: Activity
Staphylococcus aureus [11] = assay: Antibacterial activity against vancomycin-intermediate Staphylococcus aureus Mu50 incubated for 16 to 24 hrs by broth microdilution assay; assay type: functional; settings: time 16-24 hrs
Acinetobacter baumannii [12] = assay: Antibacterial activity against Acinetobacter baumannii ATCC19606 incubated for 16 to 24 hrs by broth microdilution assay; assay type: functional; settings: time 16-24 hrs
Staphylococcus aureus [13] = assay: Antibacterial activity against methicillin-resistant Staphylococcus aureus […] infected in CD-1 mouse model assessed as animal survival rate at 7 mg/kg, iv measured for 15 days relative to control; assay type: functional; settings: 360 h, time 15 day
Staphylococcus aureus [14] = assay: Antibacterial activity against vancomycin-intermediate Staphylococcus aureus XN108 infected in CD-1 mouse model assessed as animal survival rate at 7 mg/kg, iv measured for 15 days relative to control; assay type: functional; settings: XN108, 360 h, time 15 day
[15] = Volume of distribution at steady state in CD-1 mouse at 5 mg/kg, iv measured for 0.05 to 24 hrs by UPLC analysis; assay type: ADME, organism-based; settings: in vivo, time 0.05-24 hrs, read-out: Vdss
[16] = Clearance in CD-1 mouse at 5 mg/kg, iv measured for 0.05 to 24 hrs by UPLC analysis; assay type: ADME, organism-based; settings: in vivo, time 0.05-24 hrs
Staphylococcus aureus [17] = assay: Antibacterial activity against methicillin-resistant Staphylococcus aureus USA300 LAC incubated for 16 to 24 hrs by broth microdilution assay; assay type: functional; settings: time 16-24 hrs
[18] = Half life in CD-1 mouse at 5 mg/kg, iv measured for 0.05 to 24 hrs by UPLC analysis; assay type: ADME, organism-based; settings: in vivo, time 0.05-24 hrs
[19] = AUClast in CD-1 mouse at 5 mg/kg, iv measured for 0.05 to 24 hrs by UPLC analysis; assay type: ADME, organism-based; settings: in vivo, time 0.05-24 hrs
[20] = AUC (infinity) in CD-1 mouse at 5 mg/kg, iv measured for 0.05 to 24 hrs by UPLC analysis; assay type: ADME, organism-based; settings: in vivo, time 0.05-24 hrs
Staphylococcus aureus [21] = assay: Antibacterial activity against methicillin-resistant Staphylococcus aureus USA300 LAC infected in mouse model; assay type: functional
[22] = MRT (infinity) in CD-1 mouse at 5 mg/kg, iv measured for 0.05 to 24 hrs by UPLC analysis; assay type: ADME, organism-based; settings: in vivo, time 0.05-24 hrs

Row | SMILES | MIC (Enterococcus faecium [1]) | MIC (Klebsiella pneumoniae) | MIC (Escherichia coli) | MIC (Enterococcus faecium [3]) | MIC (Enterococcus faecium [4]) | MIC (Pseudomonas aeruginosa) | fraction unbound [6] | MIC (Enterococcus faecium [7]) | MIC (Acinetobacter baumannii [8]) | MIC (Staphylococcus aureus [11]) | MIC (Acinetobacter baumannii [12]) | MIC (Staphylococcus aureus [17]) | other results
1 | CN[C@H](CC(C)C)C(=O)N[C@H]1C(=O)N[C@@H](CC(N)=O)C(=O)N[C@H]2C(=O)N[C@H]3C(=O)N[C@H](C(=O)N[C@H](C(=O)O)c4cc(O)cc(O)c4-c4cc3ccc4O)[C@H](O)c3ccc(c(Cl)c3)Oc3cc2cc(c3O[C@@H]2O[C@H](CO)[C@@H](O)[C@H](O)[C@H]2O[C@H]2C[C@](C)(N)[C@H](O)[C@H](C)O2)Oc2ccc(cc2Cl)[C@H]1O [VANCOMYCIN] | > 128 µg/mL | > 128 µg/mL | > 128 µg/mL | > 128 µg/mL | > 128 µg/mL | > 128 µg/mL | 0.9 | 16 µg/mL (≈ 11 µM) | > 128 µg/mL | 8 µg/mL (≈ 5.52 µM) | > 128 µg/mL |  | MIC (Enterococcus faecium [2]): ≥ 128 µg/mL; survival at 20 mg/kg (Enterococcus faecium [5]): 0%; Activity (Staphylococcus aureus [9]): inactive; hemolysis at 1 h, 100 ug/ml [10]: ~6%
2 | CCCCCCCCC(O)C[S+](C)CCCNCc1c(O)cc2c(c1O)-c1cc(ccc1O)[C@H]1NC(=O)[C@@H]3NC(=O)[C@H](CC(N)=O)NC(=O)[C@H](NC(=O)[C@@H](CC(C)C)NC)[C@H](O)c4ccc(c(Cl)c4)Oc4cc3cc(c4O[C@@H]3O[C@H](CO)[C@@H](O)[C@H](O)[C@H]3O[C@H]3C[C@](C)(N)[C@H](O)[C@H](C)O3)Oc3ccc(cc3Cl)[C@@H](O)[C@H](NC1=O)C(=O)N[C@@H]2C(=O)O.O=C([O-])C(F)(F)F (stereo not given in full) | ≤ 0.063 µg/mL | > 128 µg/mL | 32 µg/mL | 8 µg/mL | 2 µg/mL | > 128 µg/mL |  | 1 µg/mL |  | 0.25 µg/mL |  | ≤ 0.063 µg/mL | survival at 7 mg/kg (Staphylococcus aureus [13]): 86.7%; survival at 7 mg/kg (Staphylococcus aureus [14]): 80%; Vd [15]: 0.672 L/kg; clearance [16]: 12 mL/min/kg; half-life [18]: 67.8 min; AUC(0-t) [19]: 7050 ng·h/mL; AUC(0-inf) [20]: 7080 ng·h/mL; Efficacy (Staphylococcus aureus [21]): 53.3%; MRT inf [22]: 55.9 min
3 | CCCCCCCCCCNCCN[C@@]1(C)C[C@H](O[C@H]2[C@H](Oc3c4cc5cc3Oc3ccc(cc3Cl)[C@@H](O)[C@@H](NC(=O)[C@@H](CC(C)C)NC)C(=O)N[C@@H](CC(N)=O)C(=O)N[C@H]5C(=O)N[C@H]3C(=O)N[C@H](C(=O)N[C@H](C(=O)O)c5cc(O)c(CNCP(=O)(O)O)c(O)c5-c5cc3ccc5O)[C@H](O)c3ccc(c(Cl)c3)O4)O[C@H](CO)[C@@H](O)[C@@H]2O)O[C@@H](C)[C@H]1O [TELAVANCIN] |  |  |  |  |  |  | 0.1 |  |  |  |  |  | 
4 | CN[C@H](CC(C)C)C(=O)N[C@H]1C(=O)N[C@@H](CC(N)=O)C(=O)N[C@H]2C(=O)N[C@H]3C(=O)N[C@H](C(=O)N[C@H](C(=O)NCCC[S+](C)CC(O)COc4cccc(Cl)c4)c4cc(O)cc(O)c4-c4cc3ccc4O)[C@H](O)c3ccc(c(Cl)c3)Oc3cc2cc(c3O[C@@H]2O[C@H](CO)[C@@H](O)[C@H](O)[C@H]2O[C@H]2C[C@](C)(N)[C@H](O)[C@H](C)O2)Oc2ccc(cc2Cl)[C@H]1O.O=C([O-])C(F)(F)F (stereo not given in full) | 8 µg/mL | > 128 µg/mL | 16 µg/mL | 16 µg/mL | 4 µg/mL | 128 µg/mL |  | 2 µg/mL | 64 µg/mL | 1 µg/mL | 32 µg/mL | 0.125 µg/mL | 
5 | CN[C@H](CC(C)C)C(=O)N[C@H]1C(=O)N[C@@H](CC(N)=O)C(=O)N[C@H]2C(=O)N[C@H]3C(=O)N[C@H](C(=O)N[C@H](C(=O)NCCC[S+](C)CC(O)COc4ccc(OC)cc4)c4cc(O)cc(O)c4-c4cc3ccc4O)[C@H](O)c3ccc(c(Cl)c3)Oc3cc2cc(c3O[C@@H]2O[C@H](CO)[C@@H](O)[C@H](O)[C@H]2O[C@H]2C[C@](C)(N)[C@H](O)[C@H](C)O2)Oc2ccc(cc2Cl)[C@H]1O.O=C([O-])C(F)(F)F (stereo not given in full) | 16 µg/mL | > 128 µg/mL | 16 µg/mL | 32 µg/mL | 16 µg/mL | > 128 µg/mL |  | 4 µg/mL | 64 µg/mL | 2 µg/mL | 64 µg/mL | 0.25 µg/mL | 
6 | CC(C)C[C@H](C(=O)N[C@H]1C(=O)N[C@@H](CC(N)=O)C(=O)N[C@H]2C(=O)N[C@H]3C(=O)N[C@H](C(=O)N[C@H](C(=O)O)c4cc(O)cc(O)c4-c4cc3ccc4O)[C@H](O)c3ccc(c(Cl)c3)Oc3cc2cc(c3O[C@@H]2O[C@H](CO)[C@@H](O)[C@H](O)[C@H]2O[C@H]2C[C@](C)(N)[C@H](O)[C@H](C)O2)Oc2ccc(cc2Cl)[C@H]1O)N(C)CCC[S+](C)C[C@@H](O)COc1ccccc1.O=C([O-])C(F)(F)F (stereo not given in full) | 64 µg/mL | > 128 µg/mL | > 128 µg/mL | > 128 µg/mL | 128 µg/mL | > 128 µg/mL |  | 32 µg/mL | > 128 µg/mL | 8 µg/mL | > 128 µg/mL | 1 µg/mL | 
7 | CN[C@H]1C(=O)N[C@@H]2Cc3ccc(cc3)Oc3cc4cc(c3O[C@@H]3O[C@H](C(=O)O)[C@@H](O)[C@H](O)[C@H]3NC(=O)CCCCCCCCC(C)C)Oc3ccc(cc3Cl)[C@@H](O)[C@@H]3NC(=O)[C@H](NC(=O)[C@@H]4NC(=O)[C@@H](NC2=O)c2cc(cc(O)c2Cl)Oc2cc1ccc2O)c1ccc(O)c(c1)-c1c(OC2OC(CO)C(O)C(O)C2O)cc(O)cc1[C@@H](C(=O)NCCCN(C)C)NC3=O (stereo not given in full) |  |  |  |  |  |  | 0.07 |  |  |  |  |  | 
8 | CN[C@H](CC(C)C)C(=O)N[C@H]1C(=O)N[C@@H](CC(N)=O)C(=O)N[C@H]2C(=O)N[C@H]3C(=O)N[C@H](C(=O)N[C@H](C(=O)O)c4cc(O)cc(O)c4-c4cc3ccc4O)[C@H](O[C@H]3C[C@](C)(N)[C@@H](O)[C@H](C)O3)c3ccc(c(Cl)c3)Oc3cc2cc(c3O[C@@H]2O[C@H](CO)[C@@H](O)[C@H](O)[C@H]2O[C@H]2C[C@](C)(NCc3ccc(-c4ccc(Cl)cc4)cc3)[C@@H](O)[C@H](C)O2)Oc2ccc(cc2Cl)[C@H]1O [ORITAVANCIN] |  |  |  |  |  |  | 0.14 |  |  |  |  |  | 
9 | CN[C@H](CC(C)C)C(=O)N[C@H]1C(=O)N[C@@H](CC(N)=O)C(=O)N[C@H]2C(=O)N[C@H]3C(=O)N[C@H](C(=O)N[C@H](C(=O)O)c4cc(O)cc(O)c4-c4cc3ccc4O)[C@H](O)c3ccc(c(Cl)c3)Oc3cc2cc(c3O[C@@H]2O[C@H](CO)[C@@H](O)[C@H](O)[C@H]2O[C@H]2C[C@](C)(NCCC[S+](C)CC(O)COc3ccccc3)[C@H](O)[C@H](C)O2)Oc2ccc(cc2Cl)[C@H]1O.O=C([O-])C(F)(F)F (stereo not given in full) | 16 µg/mL | > 128 µg/mL | 128 µg/mL | 16 µg/mL | 16 µg/mL | > 128 µg/mL |  | 4 µg/mL | 128 µg/mL | 1 µg/mL | 128 µg/mL | 0.25 µg/mL | 
